Assays:
Assay type in all cases: in vivo
[1] = tested on: Plutella xylostella; assay: Insecticidal effect for Plutella xylostella by immersion treatment of host crop (Test Example 1); settings: cabbage leaf dipped, second-instar larvae of Plutella xylostella, fifth day after; for rate of dead pests (%): 100 ppm; for pest or weed control at 100 ppm: foliar, 120 h, read-out: rate of dead pests (%)
Description: Insecticidal Effect for Plutella xylostella by Immersion Treatment of Host Crop One true leaf of 7 to 8-leave stage cabbage was cut off and dipped in a pesticidal solution for a few seconds, which was prepared by dissolving 5 mg of test compound (represented by the compound Nos. in the above Examples) in 0.5 ml of acetone containing Tween 20 (trade name) and then diluting it to the prescribed concentration (100 ppm) with Dain (trade name, sticker) water diluted 5000-fold. After drying the pesticidal solution, the leaf was put into an ice cream cup (180 ml), and ten second-instar larvae of Plutella xylostella were set free therein. The cup was left in a temperature-controlled breeding room (24° C.). On the fifth day after, the number of surviving Plutella xylostella was examined. The rate of dead pests was calculated by the following formula. rate of dead pests (%)=(number of dead pests/number of test pests)×100

[2] = tested on: Spodoptera litura; assay: Insecticidal effect for Spodoptera litura by spraying treatment to host crop (Test Example 2); settings: 100 ppm, sprayed on soybean, third-instar larvae of Spodoptera litura, fifth day after; for pest or weed control at 100 ppm: 120 h, read-out: rate of dead pests (%)
Description: Insecticidal Effect for Spodoptera litura by Spraying Treatment to Host Crop
A pesticidal solution, which was prepared by dissolving 5 mg of test compound (represented by the compound Nos. in the above Examples) in 0.5-ml of acetone containing Tween 20 (trade name) and then diluting it to the prescribed concentration (100 ppm) with Dain (trade name, sticker) water diluted 5000-fold, was sprayed on a soybean whose primary leaves had developed completely with spray gun in the amounts wherein the pesticidal solution dripped. After drying the pesticidal solution, two primary leaves were cut off. The leaves were put into an ice cream cup (180 ml), and ten third-instar larvae of Spodoptera litura were set free therein. The cup was left in a temperature-controlled breeding room (25° C.). On the fifth day after, the number of surviving Spodoptera litura was examined. The rate of dead pests was calculated by the following formula. rate of dead pests (%)=(number of dead pests/number of test pests)×100

[3] = tested on: Spodoptera litura; assay: Insecticidal effect for Spodoptera litura by immersion treatment of host crop root (Test Example 4); settings: 25 ppm, soybean root immersion 5 days, second-instar larvae of Spodoptera litura, fifth day after; for pest or weed control at 25 ppm: 120 h, read-out: rate of dead pests (%)
Description: Insecticidal Effect for Spodoptera litura by Immersion Treatment of Host Crop Root Roots of primary leaves developing stage soybean was washed with tap water to remove soil, and then immersed in a pesticidal solution which was prepared by dissolving 5 mg of test compound (represented by the compound Nos. in the above Examples) in 0.5 ml of acetone containing Tween 20 ([…]) with ion-exchange water, and which was filled in a light-shielded Erlenmeyer flask (100 ml). On the fifth day after immersion of root, two primary leaves were cut off, and the leaves were put into an ice cream cup (180 ml). Ten second-instar larvae of Spodoptera litura were set free therein, and the cup was left in a temperature-controlled breeding room (25° C.). On the fifth day after, the number of surviving Spodoptera litura was examined. The rate of dead pests was calculated by the following formula. rate of dead pests (%)=(number of dead pests/number of test pests)×100

Compound | rate of dead pests (%) [1] [%] | rate of dead pests (%) [2] [%] | further results
COC(=O)SN1CN(C(=O)c2c(F)cccc2F)C(=O)N(c2cc(Cl)c(F)c(Cl)c2F)C1 [III-62] | 100 | 100 | –
O=C(OCc1ccccc1)N1CN(C(=O)c2c(F)cccc2F)C(=O)N(c2ccc(SC(F)(F)C(F)Cl)cc2F)C1 (stereo not drawn) [III-77] | 100 | 100 | –
O=C(c1c(F)cccc1F)N1CN=CN(c2ccc(Oc3ccc(C(F)(F)F)cc3Cl)cc2F)C1=O [V-3] | 100 | 100 | –
C#CCN1CN(C(=O)c2c(F)cccc2F)C(=O)N(c2cc(Cl)c(F)c(Cl)c2F)C1 [III-57] | 100 | 100 | –
CS(=O)(=O)N1CN(C(=O)c2c(F)cccc2F)C(=O)N(c2ccc(Oc3ccc(C(F)(F)F)cc3Cl)cc2F)C1 [III-26] | 100 | 100 | –
O=C(c1c(F)cccc1F)N1CSCN(c2ccc([S+]([O-])C(F)(F)C(F)Cl)cc2F)C1=O (stereo not drawn) [II-22] | 100 | – | –
O=C(c1c(F)cccc1F)N1COCN(c2ccc(SC(F)(F)C(F)F)cc2F)C1=O [I-22] | 100 | 100 | –
O=C(NOCc1ccccc1)C(=O)N1CN(C(=O)c2c(F)cccc2F)C(=O)N(c2ccc(Oc3ccc(C(F)(F)F)cc3Cl)cc2F)C1 [III-50] | 100 | 100 | –
C#CCN1CN(C(=O)c2c(F)cccc2F)C(=O)N(c2ccc(Oc3ccc(C(F)(F)F)cc3Cl)cc2F)C1 [III-23] | 100 | 100 | –
COC(=O)N1CN(C(=O)c2c(F)cccc2F)C(=O)N(c2ccc(Oc3ccc(C(F)(F)F)cc3Cl)cc2F)C1 [III-28] | 100 | 100 | –
O=C(c1c(Cl)cccc1Cl)N1COCN(c2ccc(SC(F)(F)F)cc2F)C1=O [I-398] | 100 | 100 | –
O=C(c1c(F)cccc1F)N1CSCN(c2ccc(SC(F)(F)C(F)Cl)cc2F)C1=O (stereo not drawn) [II-19] | 100 | – | –
O=C(c1c(F)cccc1F)N1CNCN(c2cc(Cl)c(OC(F)(F)C(F)C(F)(F)F)cc2Cl)C1=O (stereo not drawn) [III-71] | 100 | 100 | –
C=CCN1CN(C(=O)c2c(F)cccc2F)C(=O)N(c2cc(Cl)c(F)c(Cl)c2F)C1 [III-56] | 100 | 100 | –
C=CCSc1ccc(N2COCN(C(=O)c3c(F)cccc3F)C2=O)c(F)c1 [I-59] | – | 100 | rate of dead pests (%) [3]: 100%
O=C(c1c(F)cccc1Cl)N1COCN(c2cc(F)c([S+]([O-])C(F)(F)F)cc2F)C1=O (stereo not drawn) [I-288] | – | 100 | rate of dead pests (%) [3]: 100%
CN1CN(C(=O)c2c(F)cccc2F)C(=O)N(c2ccc(S(=O)(=O)C(F)F)cc2F)C1 [III-156, 1-(2,6-difluorobenzoyl)-3-[4-(difluoromethylsulfonyl)-2-fluorophenyl]-5-methyltetrahydro-1,3,5-triazin-2 (1H)-one] | – | – | pest or weed control at 100 ppm [1]: 100%; pest or weed control at 100 ppm [2]: 100%
Cc1ccc(S(=O)(=O)N2CN(C(=O)c3c(F)cccc3F)C(=O)N(c3cc(Cl)c(F)c(Cl)c3F)C2)cc1 [III-63] | 100 | 100 | –

Compound | rate of dead pests (%) [1] [%] | rate of dead pests (%) [2] [%] | further results
O=C(OCc1ccccc1)N1CN(C(=O)c2c(F)cccc2F)C(=O)N(c2cc(Cl)c(F)c(Cl)c2F)C1 [III-55, 5-benzyloxycarbonyl-1-(3,5-dichloro-2,4-difluorophenyl)-3-(2,6-difluorobenzoyl)tetrahydro-1,3,5-triazin-2(1H)-one] | – | – | pest or weed control at 100 ppm [1]: 100%; pest or weed control at 100 ppm [2]: 100%
O=C(c1c(F)cccc1F)N1COCN(c2c(F)cc(SC(F)(F)F)cc2F)C1=O [I-104] | – | 100 | rate of dead pests (%) [3]: 100%
O=C(c1c(F)cccc1F)N1CN(c2ccccc2)CN(c2cc(Cl)c(F)c(Cl)c2F)C1=O [III-54] | 100 | 100 | –
O=C(c1c(F)cccc1F)N1CN(c2ccccc2)CN(c2ccc(Cl)cc2)C1=O [III-2, 1-(4-chlorophenyl)-3-(2,6-difluorobenzoyl)-5-phenyltetrahydro-1,3,5-triazin-2(1H)-one] | – | – | pest or weed control at 100 ppm [2]: 100%; pest or weed control at 25 ppm [3]: 90%
O=C(c1c(F)cccc1F)N1COCN(c2ccc(SCC=C(Cl)Cl)cc2F)C1=O [I-37] | – | 100 | rate of dead pests (%) [3]: 100%
C[S+]([O-])c1cc(F)c(N2COCN(C(=O)c3c(F)cccc3F)C2=O)c(F)c1 (stereo not drawn) [I-32] | – | 100 | rate of dead pests (%) [3]: 90%
COC(=O)C(=O)N1CN(C(=O)c2c(F)cccc2F)C(=O)N(c2cc(Cl)c(OC(F)(F)C(F)C(F)(F)F)cc2Cl)C1 (stereo not drawn) [III-72] | 100 | 100 | –
CCSc1ccc(N2COCN(C(=O)c3c(F)cccc3F)C2=O)c(F)c1 [I-47] | – | 100 | rate of dead pests (%) [3]: 100%
CN(C)C(=O)C(=O)N1CN(C(=O)c2c(F)cccc2F)C(=O)N(c2ccc(Oc3ccc(C(F)(F)F)cc3Cl)cc2F)C1 [III-43, 2-[3-[4-(2-chloro-4-trifluoromethylphenoxy)-2-fluorophenyl]-5-(2,6-difluorobenzoyl)hexahydro-4-oxo-1,3,5-triazin-1-yl]-N,N-dimethyl-2-oxoacetamide] | – | – | pest or weed control at 100 ppm [1]: 100%; pest or weed control at 100 ppm [2]: 100%
O=C(c1c(F)cccc1Cl)N1COCN(c2ccc(S(=O)(=O)C(F)(F)C(F)(F)F)cc2F)C1=O [I-307] | – | 100 | rate of dead pests (%) [3]: 90%
O=C(c1c(F)cccc1F)N1CN(Cc2ccccc2)CN(c2cc(Cl)c(F)c(Cl)c2F)C1=O [III-60] | 100 | 100 | –
O=C(c1c(F)cccc1F)N1COCN(c2ccc([S+]([O-])C(F)(F)F)c(F)c2F)C1=O (stereo not drawn) [I-108] | 100 | – | –
O=C(c1c(F)cccc1F)N1COCN(c2c(F)cc(SC(F)(F)F)c(F)c2F)C1=O [I-116] | 100 | 100 | –
COC(=O)N1CN(C(=O)c2c(F)cccc2F)C(=O)N(c2ccc(Cl)cc2)C1 [III-13] | – | 100 | rate of dead pests (%) [3]: 100%
CS(=O)(=O)N1CN(C(=O)c2c(F)cccc2F)C(=O)N(c2ccc(Cl)cc2)C1 [III-12, 1-(4-chlorophenyl)-3-(2,6-difluorobenzoyl)-5-methanesulfonyltetrahydro-1,3,5-triazin-2(1H)-one] | – | – | pest or weed control at 100 ppm [2]: 100%; pest or weed control at 25 ppm [3]: 100%
O=C(OCc1ccccc1)N1CN(C(=O)c2c(F)cccc2F)C(=O)N(c2cc(Cl)c(OC(F)(F)C(F)C(F)(F)F)cc2Cl)C1 (stereo not drawn) [III-70] | 100 | 100 | –
O=C(c1c(F)cccc1Cl)N1COCN(c2ccc([S+]([O-])C(F)(F)C(F)(F)F)cc2F)C1=O (stereo not drawn) [I-306] | – | 100 | rate of dead pests (%) [3]: 100%
O=C(c1c(F)cccc1Cl)N1COCN(c2ccc([S+]([O-])C(F)F)cc2F)C1=O (stereo not drawn) [I-219] | – | 100 | rate of dead pests (%) [3]: 100%

From patent publication US20050159599A1, “Cyclic compound, process for producing the same, and pest control agent” (priority 2002, published 2005)
